Test results published in ChEMBL document CHEMBL1201862, “PubChem BioAssay data set” (2004).
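Compound exposure: 48 hours, 5 concentrations, 96-well plates. GI50 = concentration required for 50% inhibition of growth.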 The source made the active and inactive calls. No stated cut-off is given here; in the data, active = GI50 up to about 1.1 µM and inactive = higher.

How the values were obtained:
Experiment in all cases: growth of human tumour cells (NCI), 48 h
[1] = test system: HL-60
[2] = test system: OVCAR-4
[3] = test system: NCI-H460
[4] = test system: RPMI-8226
[5] = test system: HCT-116
[6] = test system: SW-620
[7] = test system: MCF7
[8] = test system: EKVX
[9] = test system: NCI-H226
[10] = test system: NCI-H522
[11] = test system: SNB-75
[12] = test system: RXF 393
[13] = test system: SN12C
[14] = test system: SF-539
[15] = test system: DU-145
[16] = test system: A549
[17] = test system: HT-29
[18] = test system: HOP-92
[19] = test system: K562
[20] = test system: LOX IMVI

SMILES	GI50 [1]	GI50 [2]	GI50 [3]	GI50 [4]	GI50 [5]	GI50 [6]	GI50 [7]	GI50 [8]	GI50 [9]	GI50 [10]	GI50 [11]	GI50 [12]	GI50 [13]	GI50 [14]	GI50 [15]	GI50 [16]	GI50 [17]	GI50 [18]	GI50 [19]	GI50 [20]
O=P(Nc1ccccc1)(Oc1ccccc1)N1CCN(c2ccccc2)CC1 (stereo not given)	25 µM (inactive)	25.5 µM (inactive)	17.4 µM (inactive)	40.7 µM (inactive)	16.8 µM (inactive)	25.4 µM (inactive)	17.2 µM (inactive)	17.4 µM (inactive)	22.3 µM (inactive)	4.85 µM (inactive)	15.2 µM (inactive)	18.2 µM (inactive)	17.8 µM (inactive)	19.5 µM (inactive)	19.6 µM (inactive)	17.5 µM (inactive)	15.8 µM (inactive)	18.7 µM (inactive)	49.1 µM (inactive)	17.4 µM (inactive)
COc1ccc(/N=N/C(=O)NC(CC(C)C)C(=O)NC(Cc2ccccc2)C(=O)O)cc1 (stereo not given)	0.685 µM (active)	57.5 µM (inactive)	3.78 µM (inactive)	2.28 µM (inactive)	32.4 µM (inactive)	7.73 µM (inactive)	18.3 µM (inactive)	40.3 µM (inactive)	23.3 µM (inactive)	6.24 µM (inactive)	61.4 µM (inactive)	> 100 µM (inactive)	> 100 µM (inactive)	0.31 µM (active)	0.634 µM (active)	2.12 µM (inactive)	> 100 µM (inactive)	16.2 µM (inactive)	0.287 µM (active)	18.2 µM (inactive)
CN1CCCCC1CCN1c2ccccc2Sc2ccc([S+](C)[O-])cc21 (stereo not given) [MESORIDAZINE]	> 100 µM (inactive)	> 100 µM (inactive)	> 100 µM (inactive)	> 100 µM (inactive)	> 100 µM (inactive)	> 100 µM (inactive)	> 100 µM (inactive)	> 100 µM (inactive)	> 100 µM (inactive)	> 100 µM (inactive)	> 100 µM (inactive)	> 100 µM (inactive)	> 100 µM (inactive)	> 100 µM (inactive)	> 100 µM (inactive)	> 100 µM (inactive)	> 100 µM (inactive)	> 100 µM (inactive)	> 100 µM (inactive)	> 100 µM (inactive)
Cc1ccc2c(c1)OC1Nc3ccccc3C1=C2O (stereo not given)	16.2 µM (inactive)	40.4 µM (inactive)	20.2 µM (inactive)	28 µM (inactive)	24.8 µM (inactive)	29.2 µM (inactive)	17.2 µM (inactive)	17.4 µM (inactive)	20.7 µM (inactive)	28.7 µM (inactive)	23.2 µM (inactive)	20.5 µM (inactive)	27.3 µM (inactive)	20.1 µM (inactive)	25.5 µM (inactive)	23.4 µM (inactive)	30 µM (inactive)	38.9 µM (inactive)	25.9 µM (inactive)	23.8 µM (inactive)
Cc1cnc(NCCCN(C)C)c2c1[nH]c1ccc3cc(O)ccc3c12	3.32 µM (inactive)	0.282 µM (active)	0.0439 µM (active)	0.6 µM (active)	0.236 µM (active)	0.166 µM (active)	0.308 µM (active)	1.49 µM (inactive)	0.435 µM (active)	0.129 µM (active)	0.555 µM (active)	0.667 µM (active)	0.244 µM (active)	0.508 µM (active)	1.29 µM (inactive)	0.365 µM (active)	0.362 µM (active)	0.187 µM (active)	1.28 µM (inactive)	0.247 µM (active)
CSC(=N\c1ccccc1)/N=C(\SCc1ccccc1)N(C)C	0.172 µM (active)	0.889 µM (active)	0.161 µM (active)	0.218 µM (active)	0.292 µM (active)	0.312 µM (active)	0.278 µM (active)	1.63 µM (inactive)	1.49 µM (inactive)	0.21 µM (active)	1.62 µM (inactive)	0.989 µM (active)	1.02 µM (active)	1.28 µM (inactive)	0.9 µM (active)	1.75 µM (inactive)	0.288 µM (active)	1.4 µM (inactive)	0.05 µM (active)	0.189 µM (active)
C=C1CC2(CC(c3ccccc3OC)OC(c3ccccc3OC)C2)OC1=O (stereo not given)	0.771 µM (active)	4.35 µM (inactive)	5.75 µM (inactive)	0.25 µM (active)	1.78 µM (inactive)	1.72 µM (inactive)	1.67 µM (inactive)	14.6 µM (inactive)	8.41 µM (inactive)	1.5 µM (inactive)	2.59 µM (inactive)	1.81 µM (inactive)	1.97 µM (inactive)	2.15 µM (inactive)	7.8 µM (inactive)	4.76 µM (inactive)	2.06 µM (inactive)	1.64 µM (inactive)	2.06 µM (inactive)	1.47 µM (inactive)
CC(N/N=N/c1ccc(-c2nc3ccccc3[nH]2)cc1)C(=O)O (stereo not given)	32.6 µM (inactive)	37.6 µM (inactive)	17.5 µM (inactive)	1.91 µM (inactive)	28.9 µM (inactive)	29.8 µM (inactive)	4.21 µM (inactive)	31.8 µM (inactive)	> 100 µM (inactive)	23.3 µM (inactive)	> 100 µM (inactive)	34.1 µM (inactive)	36.3 µM (inactive)	55 µM (inactive)	49.4 µM (inactive)	33 µM (inactive)	29.5 µM (inactive)	> 100 µM (inactive)	7.16 µM (inactive)	28.2 µM (inactive)
COC1N(C2CC(O)C(CO)O2)C(=O)NC(=O)C1(F)Br (stereo not given)	> 50 µM (inactive)	> 50 µM (inactive)	0.346 µM (active)	19.3 µM (inactive)	7.8 µM (inactive)	32.8 µM (inactive)	0.52 µM (active)	67.1 µM (inactive)	> 50 µM (inactive)	49.1 µM (inactive)	36.1 µM (inactive)	46.7 µM (inactive)	9.25 µM (inactive)	0.239 µM (active)	4.72 µM (inactive)	1.12 µM (active)	20 µM (inactive)	22 µM (inactive)	36.8 µM (inactive)	6.1 µM (inactive)
COc1ccc(C2C(C)C(=O)C(C)C(c3ccc(OC)cc3)N2N=O)cc1 (stereo not given)	> 1000 µM (inactive)	> 479 µM (inactive)	> 659 µM (inactive)	> 1000 µM (inactive)	127 µM (inactive)	> 1000 µM (inactive)	372 µM (inactive)	> 830 µM (inactive)	207 µM (inactive)	> 427 µM (inactive)	26.5 µM (inactive)	40.3 µM (inactive)	530 µM (inactive)	> 75.5 µM (inactive)	213 µM (inactive)	239 µM (inactive)	> 738 µM (inactive)	53.5 µM (inactive)	> 1000 µM (inactive)	453 µM (inactive)
C=C(C)C12CC3CC/C(=N/O)C(C1)C3(N1CCOCC1)C/C2=N/O (stereo not given)	> 100 µM (inactive)	> 100 µM (inactive)	> 100 µM (inactive)	> 100 µM (inactive)	> 100 µM (inactive)	> 100 µM (inactive)	> 100 µM (inactive)	> 100 µM (inactive)	> 100 µM (inactive)	> 100 µM (inactive)	> 100 µM (inactive)	> 100 µM (inactive)	> 100 µM (inactive)	> 100 µM (inactive)	> 100 µM (inactive)	> 100 µM (inactive)	> 100 µM (inactive)	> 100 µM (inactive)	> 100 µM (inactive)	> 100 µM (inactive)
